Results reported in ChEMBL document CHEMBL1152499, “Novel l-adenosine analogs as cardioprotective agents” (2009).
Calls of active or inactive are those of the source. The rule behind the calls is not given here.

How the values were obtained:
[1] = system: Heart; assay: Cardioprotective activity in isolated Langendorff ischemia-reperfused Swiss Webster mouse heart assessed as total tissue necrotic area; assay type: functional
[2] = system: Heart; assay: Cardioprotective activity in isolated Langendorff ischemia-reperfused Swiss Webster mouse heart assessed as increase in functional recovery of contractility; assay type: tissue-based
[3] = system: Heart; assay: Cardioprotective activity in isolated Langendorff ischemia-reperfused Swiss Webster mouse heart assessed as prolongation of time to ischemic contracture; assay type: functional

| SMILES | Activity [1] | Activity [2] | Activity [3] |
| --- | --- | --- | --- |
| CN(C)c1ncnc2c1ncn2[C@H]1O[C@@H](CO)[C@H](N)[C@@H]1O | 19.1% | Active | 14.5 min |
| CNC(=O)[C@@H]1O[C@H](n2cnc3c(NC)ncnc32)[C@@H](O)[C@H]1N | inactive | inactive | inactive |
| Nc1ncnc2c1ncn2[C@@H]1O[C@H](CO)[C@@H](O)[C@H]1O [ADENOSINE] | 11.5% |  | 13.6 min |
